Assay results taken from patent US7964560B2, “Hepatitis C virus inhibitors” (Bristol-Myers Squibb Company, priority 2008, dated 2011).
Where two headings read alike, the source gives them in different places.

How the values were obtained:
[1] = target: T1, HCV NS3/4A protease complex, BMS strain (UniProt P27958, species not given/STRAIN_BMS); experiment: FRET peptide assay to monitor HCV NS3/4A proteolytic activity (BMS strain); format: biochemical, Hepatitis C virus (genotype 1a); conditions: Table 2, NS3/4A BMS strain
T1 construct: said of H77 and J4L6S; fused on or other part: three-lysine solubilising tail at the end of NS4A (printed for the H77 and J4L6S constructs; probably the same for BMS)
T1 sequence (P27958 1027-1657, change not shown, one chain of several): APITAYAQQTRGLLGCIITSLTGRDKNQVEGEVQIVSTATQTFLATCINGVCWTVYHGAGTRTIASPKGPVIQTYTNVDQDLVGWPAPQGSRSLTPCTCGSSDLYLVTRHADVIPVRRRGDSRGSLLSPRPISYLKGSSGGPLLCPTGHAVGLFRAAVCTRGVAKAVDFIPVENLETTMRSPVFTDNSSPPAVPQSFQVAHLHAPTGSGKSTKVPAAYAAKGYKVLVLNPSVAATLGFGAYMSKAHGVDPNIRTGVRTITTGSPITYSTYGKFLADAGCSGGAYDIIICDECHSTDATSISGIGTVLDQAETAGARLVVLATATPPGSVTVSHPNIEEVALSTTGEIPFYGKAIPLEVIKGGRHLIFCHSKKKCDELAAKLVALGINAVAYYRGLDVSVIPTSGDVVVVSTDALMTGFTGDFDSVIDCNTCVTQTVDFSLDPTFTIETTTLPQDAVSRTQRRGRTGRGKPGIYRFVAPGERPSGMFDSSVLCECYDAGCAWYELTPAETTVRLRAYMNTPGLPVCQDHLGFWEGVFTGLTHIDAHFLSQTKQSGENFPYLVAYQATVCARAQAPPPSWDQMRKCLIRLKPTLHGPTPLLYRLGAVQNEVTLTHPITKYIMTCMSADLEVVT
Source text: HCV […] protease complexes, derived from the BMS strain, H77 strain or J4L6S strain, were generated, as described below. These purified recombinant proteins were generated for use in a homogeneous assay (see below) to provide an indication of how effective compounds of the present disclosure would be in inhibiting HCV NS3 proteolytic activity.
Serum from an HCV-infected patient was obtained from Dr. T. Wright, San Francisco Hospital. An engineered full-length cDNA (compliment deoxyribonucleic acid) template of the HCV genome (BMS strain) was constructed from DNA fragments obtained by reverse transcription-PCR (RT-PCR) of serum RNA (ribonucleic acid) and using primers selected on the basis of homology between other genotype 1a strains. From the determination of the entire genome sequence, a genotype 1a was assigned to the HCV isolate according to the classification of Simmonds et al. (See Simmonds, P. et al., J. Clin. Microbiol., 31(6), 1493-1503 (1993)). […] The infectious clones, H77 (1a genotype) and J4L6S (1b genotype) were obtained from R. Purcell (NIH) and the sequences are published in GENBANK® (AAB67036, see Yanagi, M. et al., Proc. Natl. Acad. Sci. U.S.A., 94(16):8738-8743 (1997); AF054247, see Yanagi, M. et al., Virology, 244(1):161-172 (1998)).
The H77 and J4L6S strains were used for production of recombinant NS3/4A protease complexes. DNA encoding the recombinant HCV NS3/4A protease complex (amino acids 1027 to 1711) for these strains were manipulated as described by P. Gallinari et al. (see Gallinari, P. et al, Biochemistry, 38(17):5620-5632 (1999)). Briefly, a three-lysine solubilizing tail was added at the 3′-end of the NS4A coding region. The cysteine in the P1 position of the NS4A-NS4B cleavage site (amino acid 1711) was changed to a glycine to avoid the proteolytic cleavage of the lysine tag. Furthermore, a cysteine to serine mutation was introduced by PCR at amino acid position 1454 to prevent the autolytic cleavage in the NS3 helicase domain. The variant DNA fragment was cloned in the pET21b bacterial expression vector (Novagen) and the NS3/4A complex was expressed in Escherichia. coli strain BL21 (DE3) (Invitrogen) following the protocol described by P. Gallinari et al. (see Gallinari, P. et al., J. Virol., 72(8):6758-6769 (1998)) with modifications. Briefly, the NS3/4A protease complex expression was induced with 0.5 millimolar (mM) Isopropyl β-D-1-thiogalactopyranoside (IPTG) for 22 hours (h) at 20° C. A typical fermentation (1 Liter (L)) yielded approximately 10 grams (g) of wet cell paste. The cells were resuspended in lysis buffer (10 mL/g) consisting of 25 mM N-(2-hydroxyethyl)piperazine-N′-(2-ethane sulfonic acid) (HEPES), pH 7.5, 20% glycerol, 500 mM sodium chloride (NaCl), 0.5% Triton X-100, 1 microgram/milliliter (“μg/mL”) lysozyme, 5 mM magnesium chloride (MgCl2), 1 μg/ml DnaseI, 5 mM β-mercaptoethanol (βME), protease inhibitor-ethylenediamine tetraacetic acid (EDTA) free (Roche), homogenized and incubated for 20 minutes (min) at 4° C. The homogenate was sonicated and clarified by ultra-centrifugation at 235000 g for 1 hour (h) at 4° C. Imidazole was added to the supernatant to a final concentration of 15 mM and the pH adjusted to 8.0. The crude protein extract was loaded on a Nickel-Nitrilotriacetic acid (Ni-NTA) column pre-equilibrated with buffer B (25 mM HEPES, pH 8.0, 20% glycerol, 500 mM NaCl, 0.5% Triton X-100, 15 mM imidazole, 5 mM βME). The sample was loaded at a flow rate of 1 mL/min. The column was washed with 15 column volumes of buffer C (same as buffer B except with 0.2% Triton X-100). The protein was eluted with 5 column volumes of buffer D (same as buffer C except with 200 mM Imidazole).
NS3/4A protease complex-containing fractions were pooled and loaded on a desalting column Superdex-S200 pre-equilibrated with buffer D (25 mM HEPES, pH 7.5, 20% glycerol, 300 mM NaCl, 0.2% Triton X-100, 10 mM βME). Sample was loaded at a flow rate of 1 mL/min. […]

[2] = test system: HCV replicon in HUH-7 cells; experiment: HCV replicon FRET assay; format: cell-based, Hepatitis C virus (strain 1b); conditions: Hepatitis C virus, Huh-7, Table 2, HCV replicon, replicon assay format not stated, read-out: EC50
Source text: An HCV replicon whole cell system was established as described by Lohmann, V. et al., Science, 285(5424):110-113 (1999). This system enabled us to evaluate the effects of our HCV Protease compounds on HCV RNA replication. Briefly, using the HCV strain 1b sequence described in the Lohmann paper (Accession number: AJ238799), an HCV cDNA was synthesized by Operon Technologies, Inc. (Alameda, Calif.), and the full-length replicon was then assembled in plasmid pGem9zf(+) (Promega, Madison, Wis.) using standard molecular biology techniques. The replicon consists of (i) the HCV 5′ UTR fused to the first 12 amino acids of the capsid protein, (ii) the neomycin phosphotransferase gene (neo), (iii) the IRES from encephalomyocarditis virus (EMCV), and (iv) HCV NS3 to NS5B genes and the HCV 3′ UTR. Plasmid DNAs were linearized with ScaI and RNA transcripts were synthesized in vitro using the T7 MegaScript transcription kit (Ambion, Austin, Tex.) according to manufacturer's directions. In vitro transcripts of the cDNA were transfected into the human hepatoma cell line, HUH-7. […] Resulting cell lines were characterized for positive and negative strand RNA production and protein production over time.
The HCV replicon FRET assay was developed to monitor the inhibitory effects of compounds described in the disclosure on HCV viral replication. HUH-7 cells, constitutively expressing the HCV replicon, were grown in Dulbecco's Modified Eagle Media (DMEM) (Gibco-BRL) containing 10% Fetal calf serum (FCS) (Sigma) and 1 mg/ml G418 (Gibco-BRL). Cells were seeded the night before (1.5×10^4 cells/well) in 96-well tissue-culture sterile plates. Compound and no compound controls were prepared in DMEM containing 4% FCS, 1:100 Penicillin/Streptomysin (Gibco-BRL), 1:100 L-glutamine and 5% DMSO in the dilution plate (0.5% DMSO final concentration in the assay). Compound/DMSO mixes were added to the cells and incubated for 4 days at 37° C. After 4 days, cells were first assessed for cytotoxicity using alamar Blue (Trek Diagnostic Systems) for a CC50 reading. The toxicity of compound (CC50) was determined by adding 1/10th volume of alamar Blue to the media incubating the cells. After 4 h, the fluorescence signal from each well was read, with an excitation wavelength at 530 nm and an emission wavelength of 580 nm, using the CYTOFLUOR® Series 4000 (Perspective Biosystems). Plates were then rinsed thoroughly with Phosphate-Buffered Saline (PBS) (3 times 150 μl). The cells were lysed with 25 μl of a lysis assay reagent containing an HCV protease substrate (5× cell Luciferase cell culture lysis reagent (PROMEGA® #E153A) diluted to 1× with distilled water, NaCl added to 150 mM final, the FRET peptide substrate (as described for the enzyme assay above) diluted to 10 μM final from a 2 mM stock in 100% DMSO. The plate was then placed into the CYTOFLUOR® 4000 instrument which had been set to 340 nm excitation/490 nm emission, automatic mode for 21 cycles and the plate read in a kinetic mode. EC50 determinations were carried out as described for the IC50 determinations.

| Compound | IC50 ([1]; activity range) [nM] | EC50 ([2]; activity range) [nM] | IC50 ([1]; numeric values) [nM] | EC50 ([2]; numeric values) [nM] |
| --- | --- | --- | --- | --- |
| CCCCS[C@@]1(c2ccc(-c3ccccc3)cc2)C[C@@H](C(=O)N[C@]2(C(=O)NS(=O)(=O)C3CC3)C[C@H]2CC(F)F)N(C(=O)[C@@H](NC(=O)OC(C)(C)C)C(C)(C)C)C1 [Example 4, tert-butyl (S)-1-((2S,4R)-4-(biphenyl-4-yl)-4-(butylthio)-2-((1R,2S)-1-(cyclopropylsulfonylcarbamoyl)-2-(2,2-difluoroethyl)cyclopropylcarbamoyl)pyrrolidin-1-yl)-3,3-dimethyl-1-oxobutan-2-ylcarbamate] | 1 to 20 | 6 to 100 |  |  |
| C=C[C@@H]1C[C@]1(NC(=O)[C@@H]1C[C@](c2ccc(-c3ccccc3)cc2)(S(=O)(=O)CCCC)CN1C(=O)[C@@H](NC(=O)OC(C)(C)C)C(C)(C)C)C(=O)NS(=O)(=O)C1CC1 (single isomer, unassigned) [Example 3] |  |  | 1 | 6.6 |
